Drawing on ChEMBL document CHEMBL3507680, “University of Dundee, Gates Library screen for HepG2 cell viability”, this text covers cytotoxicity for 42 molecules.

This series is described as follows: Human HepG2 cell viability assay in 384 well format. In kind it is toxicity, cell-based. Details: dose 125 nL, time 70.5 hour; cytotoxicity at 70.5 h: concentration not given beside the values. The conditions noted are these: HepG2 cells, read-out: Inhibition.

As for `COc1cc2cc(C(=O)O)n(C)c2c(OC)c1OC`, the cytotoxicity at 70.5 h is -10.1%.
The value for `CN(Cc1ccccc1C(F)(F)F)C(C(N)=O)c1ccccc1` (configuration not stated) was 10.2%; that for `CC(c1ccc(F)cc1)N1CCN(Cc2ccc(C#N)cc2)CC1` (configuration not stated) was -11.6%; that for `COc1ccc(NC(=O)CSc2nc(C)cc(C)n2)cn1` was -8.52%.
With `Cc1c(CNCc2nn(-c3ccccc3)c3c2CCC3)cc(C#N)n1C`, the cytotoxicity at 70.5 h came out at 4.96%.
In the case of `OC(c1ccccc1)C1CCN(Cc2csc(-c3ncccn3)n2)CC1` (configuration not stated), the cytotoxicity at 70.5 h was -7.96%.
To `COCc1cccc(NC(=O)NCCCN(C)S(C)(=O)=O)c1` belongs -10.1%; to `COc1cc(OC)cc(C2NC(=O)CN2Cc2ccc(Br)cc2)c1` (configuration not stated), -8.73%.
To `CCOc1ccc(Oc2cc(CN)ccn2)cc1` belongs -27.6%; to `Cc1nn(C(C)C)c(C)c1NC(=O)Nc1cccnc1N1CCCC1`, -8.9%; to `CN(C)C(=O)Cn1cc(C(=O)NCCc2ccc(C(F)(F)F)cc2)nn1`, 30.1%.
Consider `CC(C)(C)C(CCO)NC(=O)Nc1ccncc1` (configuration not stated), for which the cytotoxicity at 70.5 h amounted to 23.3%.
`CCCNC(=O)CNC(=O)CCc1ccccc1Br`: the cytotoxicity at 70.5 h is -7.6%.
To `CC(C)COC(C)C(=O)NCCNS(C)(=O)=O` (configuration not stated) belongs -7.36%; to `Cn1ccnc1CCNS(=O)(=O)c1cccnc1`, -4.82%; to `Cc1cccc(OC2CCN(C(=O)NCCn3ccnc3)CC2)c1C`, -3.44%.
The value for `CN(C)c1cc(C(=O)NCC2(c3ccc(F)cc3)CC2)ccn1` was -1.65%; that for `CNC(=O)CN1CCC(NC(=O)C(C)Oc2ccccc2C#N)CC1` (configuration not stated) was -3.18%; that for `O=c1c2ccccc2nnn1CN(CC1CCOC1)C1CC1` (configuration not stated) was -2.98%.
On to `Cc1noc(C)c1CNCc1nn(-c2ccccc2)c2c1CCC2`, for which the cytotoxicity at 70.5 h was -3.23%.
With `COCCOc1ccc(NC(=O)N(CCO)C2CC2)cn1`, the cytotoxicity at 70.5 h was -10.9%.
Consider `Cc1cn2nc(N3CCCC3C(=O)N3CCN(C)CC3)sc2n1` (configuration not stated), for which the cytotoxicity at 70.5 h worked out at 13.5%.
To `CC(C)(C)OC(=O)NC(C)(C)c1noc(Cn2ccnc2)n1` belongs -4.72%.
To `COc1ccc(CCC(=O)NCCC2CCCO2)cc1Br` (configuration not stated) belongs -7.13%.
With `COCCOc1ccc(CNc2cnc3ccccc3n2)cn1`, the cytotoxicity at 70.5 h is -10.9%.
The value for `Fc1ccc(C2CN(c3ncnc4nc[nH]c34)CCO2)cc1` (configuration not stated) was -11.9%.
To `c1ccc2oc(C3CCN(Cc4ncon4)CC3)nc2c1` belongs -0.981%; to `COC(=O)c1ccc(NC(=O)CCNCc2ccco2)cc1`, -7.22%; to `Cc1c(C(=O)O)sc2nc(Cc3ccccc3)nc(N)c12`, -3.73%.
In the case of `Cc1ccc(CNC(=O)C2CCN(C(=O)c3ccco3)CC2)n1C`, the cytotoxicity at 70.5 h was 20.7%.
With `O=C(CSc1nncs1)N1CCN(Cc2ccc(Cl)s2)CC1`, the cytotoxicity at 70.5 h was -9.92%.
To `CN(C)c1nc(N)nc(CN2CCC(c3nc4ccccc4o3)CC2)n1` belongs -7.79%.
To `O=C1NCCCCC1Sc1nnc(C2CC2)n1C1CC1` (configuration not stated) belongs -5.95%; to `CCN(C1CCS(=O)(=O)C1)S(=O)(=O)c1cccc2cc(C)cnc12` (configuration not stated), 2.06%; to `Cc1c(C(=O)O)oc2ccc(I)cc12`, -5.09%.
For the molecule `CC(=O)N1CCCC(C(=O)Nc2ccccc2Cc2ccccc2)C1` (configuration not stated), the cytotoxicity at 70.5 h is 3.24%.
To `Cc1ccccc1C(=O)NC(C)CN1CCOC1=O` (configuration not stated) belongs -3.59%; to `CC(C)c1nc(CSc2nnc(C3CC3)n2CC(N)=O)no1`, -7.31%; to `Cc1nccc(-c2cccc(NCc3nc(C(C)C)no3)c2)n1`, -10.6%.
Consider `c1ccc2c(c1)COC1(CCCC1)N2`, for which the cytotoxicity at 70.5 h is 22.7%.
With `CC(CCc1ccccc1)NC(=O)CNCCCN1CCOCC1` (configuration not stated), the cytotoxicity at 70.5 h amounted to 10.1%.
The value for `Nc1ncnc2[nH]c(N3CCCCC3)nc12` was -6.41%.
